Source: patent US8153795B2, “Substituted 1-oxa-3,8-diazaspiro[4.5]-decan-2-one-compounds and the use thereof for producing drugs” (Gruenenthal GmbH, priority 2005, dated 2012)

The molecules below were run against T1, 5-HT transporter (Rattus norvegicus, UniProt P31652) (assay: 5-HT uptake inhibition in rat brain synaptosomes (medulla and pons), [3H]-5-HT).
T1 construct: from tissue; host or cells: rat brain synaptosomes (P2 fraction) from medulla and pons
Assay type: biochemical
Excerpt: a) Method for Determining Noradrenalin and 5-HT Uptake Inhibition:
Synaptosomes from rat brain regions are freshly isolated for in vitro studies, as described in the publication “The isolation of nerve endings from brain” by E. G. Gray and V. P. Whittaker, J. Anatomy 96, pages 79-88, 1962. The corresponding literature description is hereby introduced as a reference and is deemed to be part of the disclosure.
The tissue (hypothalamus for the determination of noradrenalin uptake inhibition and medulla and pons for the determination of 5-HT uptake inhibition) is homogenised in ice-cooled 0.32 M sucrose (100 mg of tissue/1 mL) in a glass homogeniser with Teflon pestle using five complete up and down strokes at 840 revolutions/minute.
The homogenate is centrifuged at 4° C. for 10 minutes at 1000 g. After subsequent centrifugation at 17000 g for 55 minutes, the synaptosomes (P2 fraction) are obtained, which are resuspended in 0.32 M […] (0.5 mL/100 mg of original weight).
The particular uptake is measured in a 96-well microtitre plate. The volume is 250 μl and the incubation proceeds at room temperature (approx. 20-25° C.) under an O2 atmosphere.
The incubation time is 7.5 minutes for [^3H]-NA and 5 minutes for [^3H]-5-HT. The 96 samples are then filtered through a Unifilter GF/B® microtitre plate (Packard) and washed with 200 mL of incubated buffer using a “Brabdel MPXRI-96T Cell-Harvester”. The Unifilter GF/B plate is dried for 1 hour at 55° C. The plate is then sealed with a Back Seal® (Packard) and 35 μl of scintillation fluid are added per well (Ultima Gold®, Packard). After sealing with a top Seal® (Packard) and establishing an equilibrium (around 5 hours), radioactivity is determined in a “Trilux 1450 Microbeta” (Wallac).
The quantity of protein used in the above determination corresponds to the values known from the literature, as for example described in “Protein measurement with the folin phenol reagent”, Lowry et al., J. Biol. Chem., 193, 265-275, 1951.
A detailed description of the method may additionally be found in the literature, for example in M. Ch. Frink, H.-H. Hennies, W. Engelberger, M. Haurand and B. Wilffert (1996) Arzneim.-Forsch./Drug Res. 46 (III), 11, 1029-1036.

T1 sequence (P31652 whole entry): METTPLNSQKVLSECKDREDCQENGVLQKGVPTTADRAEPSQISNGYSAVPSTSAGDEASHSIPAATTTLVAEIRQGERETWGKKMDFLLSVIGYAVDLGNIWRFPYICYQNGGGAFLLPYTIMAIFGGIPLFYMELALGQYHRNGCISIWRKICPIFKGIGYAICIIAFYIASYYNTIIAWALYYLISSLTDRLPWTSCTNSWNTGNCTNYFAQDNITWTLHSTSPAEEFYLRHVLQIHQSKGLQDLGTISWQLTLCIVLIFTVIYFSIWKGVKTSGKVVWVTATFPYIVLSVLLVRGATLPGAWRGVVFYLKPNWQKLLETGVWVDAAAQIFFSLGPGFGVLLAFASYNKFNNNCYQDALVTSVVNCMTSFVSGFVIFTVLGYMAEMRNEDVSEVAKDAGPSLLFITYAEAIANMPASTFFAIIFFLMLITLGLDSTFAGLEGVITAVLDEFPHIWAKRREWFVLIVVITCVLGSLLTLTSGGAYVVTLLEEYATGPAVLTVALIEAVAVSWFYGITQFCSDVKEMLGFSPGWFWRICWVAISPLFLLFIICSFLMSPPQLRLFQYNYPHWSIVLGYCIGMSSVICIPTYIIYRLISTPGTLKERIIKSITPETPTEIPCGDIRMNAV

Q: How did the inhibition at 10 µM turn out when `N#Cc1ccccc1CN1CC2(CCN(C(=O)CC3(CC(=O)O)CCCC3)CC2)OC1=O` [Example 71, (1-{2-[3-(2-cyanobenzyl)-2-oxo-1-oxa-3,8-diazaspiro[4.5]dec-8-yl]-2-oxoethyl}cyclopentyl)acetic acid] was run?
A: The inhibition at 10 µM was 62%.

Q: For `O=C(O)CC1(CC(=O)N2CCC3(CC2)CN(Cc2ccc(F)c(F)c2)C(=O)O3)CCCC1` [Example 72, (1-{2-[3-(3,4-difluorobenzyl)-2-oxo-1-oxa-3,8-diazaspiro[4.5]dec-8-yl]-2-oxoethyl}cyclopentyl)acetic acid], which inhibition at 10 µM is on record?
A: Its inhibition at 10 µM is 45%.

Q: With `CC(CC(=O)O)CC(=O)N1CCC2(CC1)CN(Cc1ccccc1-c1ccccc1)C(=O)O2` (centres unmarked) [Example 73, 5-(3-biphenyl-2-ylmethyl-2-oxo-1-oxa-3,8-diazaspiro[4.5]dec-8-yl)-3-methyl-5-oxopentanoic acid] as the molecule, how does the inhibition at 10 µM read?
A: Its inhibition at 10 µM is 57%.

Q: `COc1ccc([N+](=O)[O-])cc1CN1CC2(CCN(CC(=O)Nc3cc(C)nn3C)CC2)OC1=O` [Example 76, N-(2,5-dimethyl-2H-pyrazol-3-yl)-2-[3-(2-methoxy-5-nitrobenzyl)-2-oxo-1-oxa-3,8-diazaspiro[4.5]dec-8-yl]acetamide] was tested. Which inhibition at 10 µM did it give?
A: The inhibition at 10 µM was 51%.

Q: For `O=C1OC2(CCN(Cc3ccc(OC(F)(F)F)cc3)CC2)CN1Cc1ccc(F)c(F)c1` [Example 81, 3-(3,4-difluorobenzyl)-8-(4-trifluoromethoxybenzyl)-1-oxa-3,8-diazaspiro[4.5]decan-2-one], which inhibition at 10 µM is on record?
A: The inhibition at 10 µM was 75%.

Q: With `N#Cc1ccccc1CN1CC2(CCN(Cc3ccc(Cl)cc3)CC2)OC1=O` [Example 82, 2-[8-(4-chlorobenzyl)-2-oxo-1-oxa-3,8-diazaspiro[4.5]dec-3-ylmethyl]benzonitrile] as the molecule, how does the inhibition at 10 µM read?
A: The inhibition at 10 µM was 56%.

Q: `Cc1ccc2ccccc2c1CN1CCC2(CC1)CN(Cc1ccccc1C(F)(F)F)C(=O)O2` [Example 83, 8-(2-methylnaphthalen-1-ylmethyl)-3-(2-trifluoromethylbenzyl)-1-oxa-3,8-diazaspiro[4.5]decan-2-one] was tested. Which inhibition at 10 µM did it give?
A: Its inhibition at 10 µM is 41%.

Q: `N#Cc1ccccc1CN1CC2(CCN(Cc3csc4ccc(Cl)cc34)CC2)OC1=O` [Example 84, 2-[8-(5-chlorobenzo[b]thiophen-3-ylmethyl)-2-oxo-1-oxa-3,8-diazaspiro[4.5]dec-3-ylmethyl]benzonitrile] was tested. Which inhibition at 10 µM did it give?
A: Its inhibition at 10 µM is 62%.

Q: `O=C(CN1CCC2(CC1)CN(Cc1ccc(SC(F)(F)F)cc1)C(=O)O2)Nc1csc(C(F)(F)F)c1-c1ccccc1` [Example 85, 2-[2-oxo-3-(4-trifluoromethylsulfanylbenzyl)-1-oxa-3,8-diazaspiro[4.5]dec-8-yl]-N-(4-phenyl-5-trifluoromethylthiophen-3-yl)acetamide] was tested. Which inhibition at 10 µM did it give?
A: The inhibition at 10 µM was 90%.

Q: Which inhibition at 10 µM does the source give for `COc1ccc([N+](=O)[O-])cc1CN1CC2(CCN(Cc3cccc([N+](=O)[O-])c3)CC2)OC1=O` [Example 88, 3-(2-methoxy-5-nitrobenzyl)-8-(3-nitrobenzyl)-1-oxa-3,8-diazaspiro[4.5]decan-2-one] here?
A: The inhibition at 10 µM was 70%.

Q: `Cc1ccc(CN2CC3(CCN(Cc4ccc5ccccc5c4Br)CC3)OC2=O)cc1` [Example 90, 8-(1-bromonaphthalen-2-ylmethyl)-3-(4-methylbenzyl)-1-oxa-3,8-diazaspiro[4.5]decan-2-one] was tested. Which inhibition at 10 µM did it give?
A: The inhibition at 10 µM was 77%.

Q: With `CC(=O)Nc1ccc(C(=O)N2CCC3(CC2)CN(Cc2cccc(C#N)c2)C(=O)O3)cc1` [Example 91, N-{4-[3-(3-cyanobenzyl)-2-oxo-1-oxa-3,8-diazaspiro[4.5]decane-8-carbonyl]phenyl}acetamide] as the molecule, how does the inhibition at 10 µM read?
A: The inhibition at 10 µM was 68%.

Q: `CCSc1ncccc1C(=O)N1CCC2(CC1)CN(Cc1cc(C)cc(C)c1)C(=O)O2` [Example 99, 3-(3,5-dimethylbenzyl)-8-(2-ethylsulfanylpyridine-3-carbonyl)-1-oxa-3,8-diazaspiro[4.5]decan-2-one] was tested. Which inhibition at 10 µM did it give?
A: The inhibition at 10 µM was 73%.

Q: `Cc1cc(C)cc(CN2CC3(CCN(C(=O)c4c(-c5ccccc5Cl)noc4C)CC3)OC2=O)c1` [Example 101, 8-[3-(2-chlorophenyl)-5-methylisoxazole-4-carbonyl]-3-(3,5-dimethylbenzyl)-1-oxa-3,8-diazaspiro[4.5]decan-2-one] was tested. Which inhibition at 10 µM did it give?
A: The inhibition at 10 µM was 84%.

Q: With `CCc1ccc(CS(=O)(=O)N2CCC3(CC2)CN(Cc2cccc(Br)c2)C(=O)O3)cc1` [Example 102, 3-(3-bromobenzyl)-8-(4-ethylbenzylsulfonyl)-1-oxa-3,8-diazaspiro[4.5]decan-2-one] as the molecule, how does the inhibition at 10 µM read?
A: The inhibition at 10 µM was 67%.

Q: How did the inhibition at 10 µM turn out when `CCCCOc1ccc(CS(=O)(=O)N2CCC3(CC2)CN(Cc2cc(C)cc(C)c2)C(=O)O3)cc1` [Example 103, 8-(4-butoxybenzylsulfonyl)-3-(3,5-dimethylbenzyl)-1-oxa-3,8-diazaspiro[4.5]decan-2-one] was run?
A: Its inhibition at 10 µM is 83%.

Q: Which inhibition at 10 µM does the source give for `CC(=O)OC(C(=O)N1CCC2(CC1)CN(Cc1cc(C)cc(C)c1)C(=O)O2)c1ccccc1` (centres unmarked) [Example 105, acetic acid 2-[3-(3,5-dimethylbenzyl)-2-oxo-1-oxa-3,8-diazaspiro[4.5]dec-8-yl]-2-oxo-1-phenylethyl ester] here?
A: The inhibition at 10 µM was 74%.

Q: Which inhibition at 10 µM does the source give for `N#Cc1ccc(CN2CC3(CCN(C(=O)C4CC4c4ccccc4)CC3)OC2=O)cc1` (centres unmarked) [Example 106, 4-[2-oxo-8-(2-phenylcyclopropanecarbonyl)-1-oxa-3,8-diazaspiro[4.5]dec-3-ylmethyl]benzonitrile] here?
A: The inhibition at 10 µM was 63%.

Q: How did the inhibition at 10 µM turn out when `COc1ccc(OC)c(CS(=O)(=O)N2CCC3(CC2)CN(Cc2cc(C)cc(C)c2)C(=O)O3)c1` [Example 107, 8-(2,5-dimethoxybenzylsulfonyl)-3-(3,5-dimethylbenzyl)-1-oxa-3,8-diazaspiro[4.5]decan-2-one] was run?
A: The inhibition at 10 µM was 76%.

Q: How did the inhibition at 10 µM turn out when `Cc1cc(C)cc(CN2CC3(CCN(C(=O)c4ccccc4Cl)CC3)OC2=O)c1` [Example 108, 8-(2-chlorobenzoyl)-3-(3,5-dimethylbenzyl)-1-oxa-3,8-diazaspiro[4.5]decan-2-one] was run?
A: The inhibition at 10 µM was 77%.

Q: `Cc1ccc(CS(=O)(=O)NC(Cc2ccccc2)C(=O)N2CCC3(CC2)CN(Cc2cccc(C#N)c2)C(=O)O3)cc1` (centres unmarked) [Example 110, N-{1-benzyl-2-[3-(3-cyanobenzyl)-2-oxo-1-oxa-3,8-diazaspiro[4.5]dec-8-yl]-2-oxoethyl}-4-methylbenzylsulfonamide] was tested. Which inhibition at 10 µM did it give?
A: Its inhibition at 10 µM is 64%.

Q: For `CCSc1ncccc1C(=O)N1CCC2(CC1)CN(Cc1cccc(OC)c1)C(=O)O2` [Example 111, 8-(2-ethylsulfanylpyridine-3-carbonyl)-3-(3-methoxybenzyl)-1-oxa-3,8-diazaspiro[4.5]decan-2-one], which inhibition at 10 µM is on record?
A: Its inhibition at 10 µM is 71%.

Q: With `COc1cccc(CN2CC3(CCN(C(=O)c4ccc(OC)cc4OC)CC3)OC2=O)c1` [Example 112, 8-(2,4-dimethoxybenzoyl)-3-(3-methoxybenzyl)-1-oxa-3,8-diazaspiro[4.5]decan-2-one] as the molecule, how does the inhibition at 10 µM read?
A: The inhibition at 10 µM was 66%.

Q: For `COc1cccc(CC(=O)N2CCC3(CC2)CN(Cc2cc(C)cc(C)c2)C(=O)O3)c1` [Example 113, 3-(3,5-dimethylbenzyl)-8-[2-(3-methoxyphenyl)acetyl]-1-oxa-3,8-diazaspiro[4.5]decan-2-one], which inhibition at 10 µM is on record?
A: Its inhibition at 10 µM is 68%.

Q: For `COc1cc(C)c(CS(=O)(=O)N2CCC3(CC2)CN(Cc2cc(C)cc(C)c2)C(=O)O3)c(C)c1C` [Example 114, 3-(3,5-dimethylbenzyl)-8-(4-methoxy-2,3,6-trimethylbenzylsulfonyl)-1-oxa-3,8-diazaspiro[4.5]decan-2-one], which inhibition at 10 µM is on record?
A: The inhibition at 10 µM was 73%.

Q: Which inhibition at 10 µM does the source give for `N#Cc1ccc(CN2CC3(CCN(C(=O)c4ccc(-c5ccccc5)cc4)CC3)OC2=O)cc1` [Example 115, 4-[8-(biphenyl-4-carbonyl)-2-oxo-1-oxa-3,8-diazaspiro[4.5]dec-3-ylmethyl]benzonitrile] here?
A: The inhibition at 10 µM was 84%.
